These results are taken from the METLIN SMRT retention time set (Domingo-Almenara et al. 2019).

The data set can be described thus: gradient 5% acetonitrile 3 min, to 50% in 2 min, to 85% in 15 min, held 3 min, 100 µL/min. The note with it: column: Zorbax Extend-C18 2.1 x 50 mm; eluents: water / acetonitrile, 0.1% formic acid. The essentials:
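Standards, all pure, were combined into mixtures of ~100 molecules and run at 100 μL/min on a Zorbax Extend-C18 column (2.1 × 50 mm, 1.8 μm) with water and acetonitrile, each containing 0.1% formic acid. A coupled quadrupole time-of-flight mass spectrometer operated in positive and negative ionization mode. Retention time values come from computationally picked adduct peaks, each inspected manually.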
`O=C(NC1CCCCCC1)c1cn(-c2cc(-c3nc(C4CC4)no3)ccn2)cn1` gave an RP-LC retention time of 1040 s.

Molecule `COc1ccc(-c2noc(-c3nn(-c4ccc(OC)cc4)ccc3=O)n2)cc1` showed an RP-LC retention time of 827 s.

As to `COC(=O)c1cc2n(n1)CC(C)(C(=O)NC1CCCCC1)N(c1ccc(F)cc1)C2=O` (stereo not given), the RP-LC retention time worked out at 847 s.

With `O=C(Cc1cccs1)Nc1ccc(SCc2nnc(-c3ccccc3)o2)cc1`, the RP-LC retention time is 940 s.

For `CCc1nn2c(ncc3c(=O)n(-c4nccs4)ccc32)c1-c1ccc(F)cc1`, the RP-LC retention time came to 1320 s.

Molecule `O=S(=O)(c1ccccc1F)N1CCc2nc(-c3ccccc3)ncc2C1` came in with an RP-LC retention time of 1010 s.

In turn, `O=C(c1cc2c(=O)n(Cc3ccccc3)ccc2s1)N1CCOCC1` returned an RP-LC retention time of 716 s.

In the case of `Cc1ccc(N2C(=O)CCS2(=O)=O)cc1S(=O)(=O)Nc1cccc2cccnc12`, the RP-LC retention time worked out at 808 s.

The molecule `O=C1NCCOCCN(S(=O)(=O)c2cccc(F)c2)[C@H]2CCC[C@@H]12` displayed an RP-LC retention time of 748 s.

`COc1ccc(-c2csc(NC(=O)c3cccc([N+](=O)[O-])c3C(=O)O)n2)cc1` gave an RP-LC retention time of 938 s.

`CC(C)Oc1ccc(-c2noc(Cn3nc(-c4ccccc4)ccc3=O)n2)cc1` came in with an RP-LC retention time of 732 s.

As for `Cc1noc(C)c1-c1ccc(S(=O)(=O)NC2CCCCCC2)cc1`, the RP-LC retention time stood at 1010 s.

In turn, `CCCNc1nc(-c2cccc(Cl)c2)cs1` displayed an RP-LC retention time of 1020 s.

`COC(=O)c1cnc(N2CCN(c3cccc(Cl)c3)CC2)c2ccccc12`: the RP-LC retention time was 1350 s.

With `COc1ccc(NC(=O)N(C)CCc2noc(COc3ccc(F)cc3)n2)cc1`, the RP-LC retention time stood at 692 s.

On to `Cc1oc2ccn(Cc3ccccc3F)c(=O)c2c1C(=O)NCc1cccs1`, for which the RP-LC retention time came out at 1030 s.

On to `COC(=O)c1cccc(NC(=O)C2CCN(c3c(C#N)cnc4ccccc34)CC2)c1`, for which the RP-LC retention time is 675 s.

In turn, `O=C(Cc1ccc(F)cc1)NCc1ccc(-c2nc(C3CC3)no2)s1` gave an RP-LC retention time of 885 s.

Regarding `COc1ccc(C2CCN(S(C)(=O)=O)CC2)cc1`, the RP-LC retention time turned out to be 845 s.

In turn, `Cc1cc(C2CCCN2C(=O)Nc2cccc(Cl)c2C)on1` (stereo not given) gave an RP-LC retention time of 794 s.

With `COc1ccccc1-c1noc(Cn2ccn3nc(-c4ccc(Cl)cc4)cc3c2=O)n1`, the RP-LC retention time was determined as 1040 s.

`Cc1ccc(NS(=O)(=O)c2cc3c(=O)n(C)ncn3c2)cc1C` gave an RP-LC retention time of 849 s.

On to `Cc1oc(-c2ccccc2)nc1Cn1ccn2nc(-c3ccc4c(c3)OCO4)cc2c1=O`, for which the RP-LC retention time was 1060 s.

On to `CCSc1nnc(-c2nn(C)c3c2CN(C(=O)c2cccc(F)c2)CC3)n1C`, for which the RP-LC retention time worked out at 744 s.

For the molecule `Cn1nc2ccc(S(=O)(=O)N3CCCCC3)cn2c1=O`, the RP-LC retention time was found to be 703 s.

`CCC(=O)Nc1ccc(CCc2nc3ccc(C(=O)NCCCOC)cc3[nH]2)cc1` came in with an RP-LC retention time of 596 s.

Take `CCCn1c(=O)sc2cc(S(=O)(=O)N3CCC(C(=O)Nc4cc(C)ccc4C)CC3)ccc21`: the RP-LC retention time is 985 s.

In turn, `Cc1ccc(C(=O)N[C@@H]2CN(S(C)(=O)=O)C[C@H]2CN(C)C)s1` came in with an RP-LC retention time of 582 s.

`CC1CCCCN1S(=O)(=O)c1ccc2nc(N3CCN(c4cccc(Cl)c4)CC3)ccc2c1` (stereo not given) registered an RP-LC retention time of 1250 s.

As for `CC(C)Oc1ccc(C(=O)O)cc1`, the RP-LC retention time worked out at 823 s.

`Cc1nnsc1C(=O)NCc1c(F)cccc1Cl`: the RP-LC retention time is 861 s.

Turning to `Cc1cc(F)ccc1NS(=O)(=O)c1ccc(-c2nnc(C3CCC3)o2)o1`, the RP-LC retention time was 963 s.

`COc1ccc(NC(=O)c2noc3c2CCCCC3)c(OC)c1` had an RP-LC retention time of 1080 s.

`CC(C)(C)OC(=O)Nc1ccc(-c2cc(C(=O)NCCCCCCC(=O)NO)no2)cc1` gave an RP-LC retention time of 739 s.

With `CCn1cnc2ccc(-c3noc(CNC(=O)c4ccccc4)n3)cc21`, the RP-LC retention time came to 620 s.

`Cc1ccc2c(c1)[C@H]1OCCC[C@H]1C(c1cccc(O)c1)N2` (stereo not given in full) showed an RP-LC retention time of 928 s.

In turn, `COc1ccc2cccc(NC(=O)c3ccc(F)c(F)c3)c2n1` gave an RP-LC retention time of 1200 s.

Regarding `COCCCN(Cc1ccco1)c1nc(-c2ccc(OC)cc2)nc2ccccc12`, the RP-LC retention time worked out at 823 s.

`COc1cccc(CNC(=O)Cn2c(=O)cc(-c3nc(C4CC4)no3)c3ccccc32)c1` came in with an RP-LC retention time of 902 s.

`CC(=O)c1ccc(Oc2ccccc2)cc1` gave an RP-LC retention time of 920 s.

The molecule `O=C(CSc1ncccn1)NCc1cc(-c2ccc(F)cc2)on1` gave an RP-LC retention time of 700 s.

`CCN1C(=O)COc2ccc(-c3noc(COc4ccc(Cl)cc4)n3)cc21` gave an RP-LC retention time of 1110 s.

Turning to `CCc1nc(-c2csc(S(=O)(=O)N3CCC(C(=O)NCc4ccc(Cl)cc4)CC3)c2)no1`, the RP-LC retention time was 994 s.

In turn, `COCc1c(C(=O)O)nnn1-c1ccc(F)c(F)c1` had an RP-LC retention time of 723 s.

`COc1cccc(CNC(=O)NCCc2nc3cccnc3n2Cc2ccccc2)c1` yielded an RP-LC retention time of 723 s.

Molecule `COc1ccc(OC)c(CN2C[C@@H]3C(=O)N(C)C(=O)[C@@H]3C2)c1` gave an RP-LC retention time of 574 s.

In the case of `O=C(Nc1cc(-c2ccsc2)no1)C1(c2ccccc2)CC1`, the RP-LC retention time came out at 1030 s.

`CC(Oc1cccc(Cl)c1)C(=O)NCC1(C)CCOCC1` (stereo not given) came in with an RP-LC retention time of 816 s.

Regarding `Cn1ncc2c3ccccc3n(CC(=O)NCCCN3CCC(N4CCCCC4)CC3)c2c1=O`, the RP-LC retention time was found to be 527 s.

On to `Cc1ccc(Cl)cc1NC(=O)C1CCCN1S(=O)(=O)c1cc2c(cc1C)NC(=O)C(C)O2` (stereo not given), for which the RP-LC retention time was determined as 892 s.

The molecule `Cc1ccc(NC(=O)Cc2c(C(=O)O)c(C)cn2C)nc1` registered an RP-LC retention time of 642 s.

Turning to `Cn1nc(-c2nnc(-c3ccccc3)o2)c2c1CCN(S(=O)(=O)c1ccc(F)cc1F)C2`, the RP-LC retention time was determined as 955 s.

`Cc1ccccc1Cn1c(C)c(CNCCc2ccco2)c(C(=O)O)c1C` returned an RP-LC retention time of 738 s.

In the case of `COc1ccc(CN2CCC(C3CCNC3)CC2)c(Cl)c1OC` (stereo not given), the RP-LC retention time came out at 556 s.

In turn, `Cc1nc(-c2ccc(C(=O)NC3CC3)cc2)no1` showed an RP-LC retention time of 668 s.

Consider `COc1ccc(C2(C(=O)N[C@@H]3CN(S(C)(=O)=O)C[C@H]3CN(C)C)CC2)cc1`, for which the RP-LC retention time was 635 s.

As for `Cc1ccc(CN2CCC(CNC(=O)c3noc(C)c3Cn3nc(C)cc3C)C2)cc1` (stereo not given), the RP-LC retention time worked out at 659 s.

In turn, `COCCNC(=O)NCc1ccc2c(c1)N(C(=O)c1ccc(C)cc1)CC2` returned an RP-LC retention time of 723 s.

In turn, `COc1ccccc1CCNC(=O)Cc1csc(NC(=O)c2ccco2)n1` registered an RP-LC retention time of 700 s.

For the molecule `Cc1cc(Cl)ccc1NC(=O)C1CCCN1S(=O)(=O)c1cc2c(cc1C)NC(=O)CO2` (stereo not given), the RP-LC retention time worked out at 832 s.
